The results in this text go back to patent US20240199587A1, “HETEROCYCLIC COMPOUNDS” (Hoffmann-La Roche Inc., priority 2021, published 2024).

pIC50: −log10 of the molar value.

The target in the assay is T1, MAGL (Homo sapiens, UniProt Q99685).
T1 sequence (Q99685 1-303): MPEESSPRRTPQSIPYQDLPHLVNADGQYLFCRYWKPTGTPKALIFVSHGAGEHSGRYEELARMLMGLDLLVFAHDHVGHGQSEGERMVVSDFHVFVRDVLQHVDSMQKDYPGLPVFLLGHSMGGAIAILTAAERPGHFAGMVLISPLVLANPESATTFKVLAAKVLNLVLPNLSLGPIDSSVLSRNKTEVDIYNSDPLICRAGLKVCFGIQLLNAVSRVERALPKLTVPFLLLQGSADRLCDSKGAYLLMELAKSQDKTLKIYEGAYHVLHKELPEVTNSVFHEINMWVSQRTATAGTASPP
Kind of assay: 2-AG assay (MAGL inhibitory activity, hydrolysis of 2-arachidonoylglycerol to arachidonic acid followed by mass spectrometry). In kind it is biochemical. As to conditions: 8 μM 2-arachidonoylglycerol, 15 min pre-incubation, 30 min incubation at RT, RapidFire MS readout. The text has this:
Compounds of formula (I) were profiled for MAGL inhibitory activity by determining the enzymatic activity by following the hydrolysis of the natural substrate 2-arachidonoylglycerol (2-AG) resulting in arachidonic acid, which can be followed by mass spectrometry. This assay is hereinafter abbreviated “2-AG assay”.
Compounds of formula (I) were profiled for MAGL inhibitory activity by determining the enzymatic activity by following the hydrolysis of the natural substrate 2-arachidonoylglycerol (2-AG) resulting in arachidonic acid, which can be followed by mass spectrometry. This assay is hereinafter abbreviated “2-AG assay”. The 2-AG assay was carried out in 384 well polypropylene assay plates. […] Compound dilutions were added to MAGL protein in assay buffer (50 mM TRIS, 1 mM EDTA, 0.01% (v/v) Tween-20, 2.5% (v/v) DMSO). After shaking, the plate was incubated for 15 min at RT. To start the reaction, 2-arachidonoylglycerol in assay buffer was added. The final concentrations in the assay was […] for MAGL protein and 8 μM 2-arachidonoylglyerol. After shaking and 30 min incubation at RT, the reaction was quenched by the addition of two assay volumes of acetonitrile containing 4 μM of d8-arachidonic acid. The amount of arachidonic acid formed was traced by an online SPE system (Agilent Rapidfire) coupled to a triple quadrupole mass spectrometer. A C18 SPE cartridge (Agilent G9205A) was used in an acetonitrile/water liquid setup. The mass spectrometer was operated in negative electrospray mode following the mass transitions 303.1→259.1 for arachidonic acid and 311.1→267.0 for d8-arachidonic acid. The activity of the compounds was calculated based on the ratio of intensities [arachidonic acid/d8-arachidonic acid].
`Cc1cc(C(=O)N2CC3(CC(n4cnc(C5CC5)n4)C3)C2)nnc1OCC1(C(F)(F)F)CC1` [Example 32, [6-(3-cyclopropyl-1,2,4-triazol-1-yl)-2-azaspiro[3.3]heptan-2-yl]-[5-methyl-6-[[1-(trifluoromethyl)cyclo-propyl]methoxy]pyridazin-3-yl] methanone]: the negative-log IC50 (pIC50) – broadly, −log10 of the IC50, conventionally taken in molar units – was 5.55.
With `O=C(N1CC(c2ccc(OC(F)(F)F)cc2)C1)N1CC2(CC(n3cnc(C4CC4)n3)C2)C1` [Example 33, [6-(3-cyclopropyl-1,2,4-triazol-1-yl)-2-azaspiro[3.3]heptan-2-yl]−[3-[4-(trifluoromethoxy)phenyl]azetidin-1-yl]methanone], the negative logarithm of the IC50 (pIC50) is 9.40.
`O=C(N1CC(c2ccc(C3(N4CCOCC4)CC3)cc2)C1)N1CC2(CC(n3cnc(C4CC4)n3)C2)C1` [Example 34, [6-(3-cyclopropyl-1,2,4-triazol-1-yl)-2-azaspiro[3.3]heptan-2-yl]-[3-[4-(1-morpholinocyclopro-pyl)phenyl]azetidin-1-yl]methanone] gave a pIC50 of 8.24.
Turning to `CC(F)(F)c1ccc(C2CN(C(=O)N3CC4(CC(n5cnc(C6CC6)n5)C4)C3)C2)cc1` [Example 35], the pIC50 is 7.70. Compared with the last compound, the pIC50 is 0.54 log units lower.
For `O=C(N1CC(c2ccc(OC(F)(F)F)c(F)c2)C1)N1CC2(CC(n3cnc(C4CC4)n3)C2)C1` [Example 36, [6-(3-cyclopropyl-1,2,4-triazol-1-yl)-2-azaspiro[3.3]heptan-2-yl]-[3-[3-fluoro-4-(trifluoromethoxy)phenyl]azetidin-1-yl]methanone] the value was 9.40; for `O=C(N1CC(c2ccc(CC(F)(F)F)cc2)C1)N1CC2(CC(n3cnc(C4CC4)n3)C2)C1` [Example 37, [6-(3-cyclopropyl-1,2,4-triazol-1-yl)-2-azaspiro[3.3]heptan-2-yl]-[3-[4-(2,2,2-trifluoroethyl)phenyl]azetidin-1-yl]methanone], 7.61.
The compound `O=C(N1CC(c2ccc(C3CC3)cc2F)C1)N1CC2(CC(n3cnc(C4CC4)n3)C2)C1` [Example 38, [3-(4-cyclopropyl-2-fluoro-phenyl)azetidin-1-yl]-[6-(3-cyclopropyl-1,2,4-triazol-1-yl)-2-azaspiro[3.3]heptan-2-yl]methanone] showed a pIC50 of 9.22. Against the preceding compound, the pIC50 is 1.61 log units higher.
In turn, `N#Cc1cc(C2CN(C(=O)N3CC4(CC(n5cnc(C6CC6)n5)C4)C3)C2)ccc1OC(F)(F)F` [Example 39, 5-[1-[6-(3-cyclopropyl-1,2,4-triazol-1-yl)-2-azaspiro[3.3]heptane-2-carbonyl]azetidin-3-yl]-2-(trifluoromethoxy) benzonitrile] showed a pIC50 of 8.62.
`COc1cc(C(F)(F)F)ccc1CC1CC2(C1)CN(C(=O)N1CC3(CC(n4cnc(C5CC5)n4)C3)C1)C2` [Example 40, [6-(3-cyclopropyl-1,2,4-triazol-1-yl)-2-azaspiro[3.3]heptan-2-yl]−[6-[[2-methoxy-4-(trifluoromethyl)phenyl]methyl]-2-azaspiro[3.3]heptan-2-yl]methanone] had a pIC50 of 10.52.
The same measure for `O=C(N1CC2(CC(Cc3ccc(F)cc3F)C2)C1)N1CC2(CC(n3cnc(C4CC4)n3)C2)C1` [Example 41, [6-(3-cyclopropyl-1,2,4-triazol-1-yl)-2-azaspiro[3.3]heptan-2-yl]-[6-[(2,4-difluorophenyl)methyl]-2-azaspiro[3.3]heptan-2-yl]methanone]: 10.40.
For the compound `O=C(N1CC2(CC(Oc3ccc(OC(F)(F)F)cc3F)C2)C1)N1CC2(CC(n3cnc(C4CC4)n3)C2)C1` [Example 42, [6-(3-cyclopropyl-1,2,4-triazol-1-yl)-2-azaspiro[3.3]heptan-2-yl]−[6-[2-fluoro-4-(trifluoromethoxy)phenoxy]-2-azaspiro[3.3]heptan-2-yl]methanone], the pIC50 was 10.00.
Turning to `O=C(N1CC2(CC(Oc3ccc(C(F)(F)F)cc3)C2)C1)N1CC2(CC(n3cnc(C4CC4)n3)C2)C1` [Example 43, [6-(3-cyclopropyl-1,2,4-triazol-1-yl)-2-azaspiro[3.3]heptan-2-yl]-[6-[4-(trifluoromethyl)phenoxy]-2-azaspiro[3.3]heptan-2-yl]methanone], the pIC50 is 10.00.
The compound `CC(C)(C)c1ccc(C2CN(C(=O)N3CC4(CC(n5cnc(C6CC6)n5)C4)C3)C2)cc1` [Example 44, [3-(4-tert-butylphenyl)azetidin-1-yl]-[6-(3-cyclopropyl-1,2,4-triazol-1-yl)-2-azaspiro[3.3]heptan-2-yl]methanone] showed a pIC50 of 9.70.
Turning to `O=C(N1CC2(CC(Oc3ccc(F)cc3Cl)C2)C1)N1CC2(CC(n3cnc(C4CC4)n3)C2)C1` [Example 45, [6-(2-chloro-4-fluoro-phenoxy)-2-azaspiro[3.3]heptan-2-yl]-[6-(3-cyclopropyl-1,2,4-triazol-1-yl)-2-azaspiro[3.3]heptan-2-yl]methanone], the pIC50 was 9.70.
The compound `O=C(N1CC2(CC(Oc3cc(F)cc(C(F)(F)F)c3)C2)C1)N1CC2(CC(n3cnc(C4CC4)n3)C2)C1` [Example 46, (6-(3-cyclopropyl-1H-1,2,4-triazol-1-yl)-2-azaspiro[3.3]heptan-2-yl)(6-(3-fluoro-5-(trifluoromethyl)phenoxy)-2-azaspiro[3.3]heptan-2-yl)methanone] gave a negative-log IC50 (pIC50) of 9.70.
As for `N#Cc1cc(OC(F)(F)F)ccc1OC1CC2(C1)CN(C(=O)N1CC3(CC(n4cnc(C5CC5)n4)C3)C1)C2` [Example 47], the negative-log IC50 (pIC50) was 9.70.
`O=C(N1CC(c2ccc(C3(C(F)(F)F)CC3)cc2)C1)N1CC2(CC(n3cnc(C4CC4)c3)C2)C1` [Example 48, [6-(4-cyclopropylimidazol-1-yl)-2-azaspiro[3.3]heptan-2-yl]-[3-[4-[1-(trifluoromethyl)cyclo-propyl]phenyl]azetidin-1-yl]methanone]: the pIC50 is 9.70.
For `O=C(N1CC(OCc2ccc(S(F)(F)(F)(F)F)cc2F)C1)N1CC2(CC(n3cnc(C4CC4)n3)C2)C1` [Example 49] the value was 9.52.
The compound `O=C(N1CC2(CC(Cc3ccc(F)c(F)c3)C2)C1)N1CC2(CC(n3cnc(C4CC4)n3)C2)C1` [Example 50, (6-(3-cyclopropyl-1H-1,2,4-triazol-1-yl)-2-azaspiro[3.3]heptan-2-yl)(6-(3,4-difluorobenzyl)-2-azaspiro[3.3]heptan-2-yl)methanone] showed a pIC50 of 9.52.
For `O=C(N1CC2(CC(Oc3cncc(C(F)(F)F)n3)C2)C1)N1CC2(CC(n3cnc(C4CC4)n3)C2)C1` [Example 51, (6-(3-cyclopropyl-1H-1,2,4-triazol-1-yl)-2-azaspiro[3.3]heptan-2-yl)(6-((6-(trifluoromethyl)pyrazin-2-yl)oxy)-2-azaspiro[3.3]heptan-2-yl)methanone] the value was 9.52; for `O=C(N1CC2(CC(Oc3ccc(C(F)(F)F)cn3)C2)C1)N1CC2(CC(n3cnc(C4CC4)n3)C2)C1` [Example 52, [6-(3-cyclopropyl-1,2,4-triazol-1-yl)-2-azaspiro[3.3]heptan-2-yl]-[6-[[5-(trifluoromethyl)-2-pyridyl]oxy]-2-azaspiro[3.3]heptan-2-yl]methanone], 9.40.
In the case of `O=C(N1CC(c2ccc(OC(F)(F)F)c(Cl)c2)C1)N1CC2(CC(n3cnc(C4CC4)n3)C2)C1` [Example 53, [3-[3-chloro-4-(trifluoromethoxy)phe-nyl]azetidin-1-yl]-[6-(3-cyclopropyl-1,2,4-triazol-1-yl)-2-azaspiro[3.3]heptan-2-yl]methanone], the pIC50 was 9.15. This pIC50 lies 0.25 log units lower than the previous one.
The same measure for `O=C(N1CC2(CC(Oc3ccc(OC(F)(F)F)cc3)C2)C1)N1CC2(CC(n3cnc(C4CC4)n3)C2)C1` [Example 54, [6-(3-cyclopropyl-1,2,4-triazol-1-yl)-2-azaspiro[3.3]heptan-2-yl]-[6-[4-(trifluoromethoxy)phe-noxy]-2-azaspiro[3.3]heptan-2-yl]methanone]: 8.92; for `O=C(N1CC2(CC(Oc3ccnc(C(F)(F)F)n3)C2)C1)N1CC2(CC(n3cnc(C4CC4)n3)C2)C1` [Example 55, [6-(3-cyclopropyl-1,2,4-triazol-1-yl)-2-azaspiro[3.3]heptan-2-yl]−[6-[2-(trifluoromethyl)pyrimidin-4-yl]oxy-2-azaspiro[3.3]heptan-2-yl]methanone]: 8.74; for `O=C(N1CC2(CC(Oc3ccc(OC(F)F)nc3)C2)C1)N1CC2(CC(n3cnc(C4CC4)n3)C2)C1` [Example 56, (6-(3-cyclopropyl-1H-1,2,4-triazol-1-yl)-2-azaspiro[3.3]heptan-2-yl)(6-((6-(difluoromethoxy)pyridin-3-yl)oxy)-2-azaspiro[3.3]heptan-2-yl)methanone]: 8.60.
